From patent US20240384268A1, “Oligonucleotides” (Hudson Institute of Medical Research, priority 2021, published 2024)
In the oligonucleotide strings, read from the 5' end, every base follows the letter of its sugar. An asterisk marks phosphorothioate; unmarked linkages are phosphodiester. Other units and linkages are bracketed, terminal groups are in braces. A string of capitals states the bases alone. m = 2'-O-methyl

Molecular target: T1, human TLR7 (Homo sapiens, UniProt Q9NYK1)
T1 construct: HA; host or cells: 293XL-hTLR7-HA (HEK293)
T1 sequence (Q9NYK1 27-1049): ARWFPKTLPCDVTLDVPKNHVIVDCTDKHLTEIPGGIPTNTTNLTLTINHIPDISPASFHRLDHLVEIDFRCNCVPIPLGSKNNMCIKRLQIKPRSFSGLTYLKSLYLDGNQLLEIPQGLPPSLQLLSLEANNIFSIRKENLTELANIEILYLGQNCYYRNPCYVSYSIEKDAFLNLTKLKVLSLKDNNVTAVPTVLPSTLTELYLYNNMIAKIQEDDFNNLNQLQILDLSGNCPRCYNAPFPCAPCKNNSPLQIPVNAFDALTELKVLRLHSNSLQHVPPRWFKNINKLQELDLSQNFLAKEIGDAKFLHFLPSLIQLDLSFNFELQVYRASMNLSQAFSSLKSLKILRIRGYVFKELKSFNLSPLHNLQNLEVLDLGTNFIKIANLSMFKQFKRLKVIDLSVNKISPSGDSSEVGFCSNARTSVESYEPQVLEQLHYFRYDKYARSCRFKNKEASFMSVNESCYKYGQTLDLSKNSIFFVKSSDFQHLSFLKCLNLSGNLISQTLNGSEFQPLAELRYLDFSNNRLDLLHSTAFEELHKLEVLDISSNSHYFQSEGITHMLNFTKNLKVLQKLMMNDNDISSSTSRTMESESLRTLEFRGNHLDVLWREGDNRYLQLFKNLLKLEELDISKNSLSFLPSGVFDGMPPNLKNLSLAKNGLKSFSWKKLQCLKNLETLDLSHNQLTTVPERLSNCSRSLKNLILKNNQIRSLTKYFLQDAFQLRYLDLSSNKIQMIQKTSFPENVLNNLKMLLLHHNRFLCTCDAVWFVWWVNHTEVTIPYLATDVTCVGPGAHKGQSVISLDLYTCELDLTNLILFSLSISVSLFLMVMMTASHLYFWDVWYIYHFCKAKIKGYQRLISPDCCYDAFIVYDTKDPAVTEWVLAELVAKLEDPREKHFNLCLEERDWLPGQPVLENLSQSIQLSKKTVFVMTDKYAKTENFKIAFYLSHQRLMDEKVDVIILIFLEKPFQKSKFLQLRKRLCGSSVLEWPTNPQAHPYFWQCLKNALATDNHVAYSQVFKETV
Test: HEK-TLR7 NF-κB-luciferase reporter, R848 stimulation
Format: cell-based
Conditions: for TLR7 400 nM: 3mer 2'OMe ASO at 400 nM; for TLR7 400 nM / TLR7 2 uM: value relative to Ligand only = 1.000, NT = 0.000; for TLR7 2 uM: 3mer 2'OMe ASO at 2 uM; for TLR7 100 nM (averaged NF-κB-Luciferase level relative to R848 condition): ASO 100 nM; for TLR7 100 nM (averaged NF-κB-Luciferase level relative to R848 condition) / TLR7 500 nM (averaged NF-κB-Luciferase level relative to R848 condition): relative to R848 only, given as fraction; for TLR7 500 nM (averaged NF-κB-Luciferase level relative to R848 condition): ASO 500 nM
Protocol: In such examples, inhibition of TLR7 activity can be identified by observation of an overall decreased TLR7 response of the cell population, or a lower proportion of cells having TLR7-positive activity as compared to positive control condition in which cells are treated with TLR7 agonist in the absence of the oligonucleotide (or in the presence of an appropriate control inhibitory agent). In one example, 293XLhTLR7 (referred to as HEK-TLR7) cells are transfected with pNF-κB-Luc4 reporter, incubated with an oligonucleotide, and then stimulated with R848. TLR7 activity can be determined by a luciferase assay, which measures activated NF-κB by luminescence. TLR7 activity can also be analysed by measuring cytokine levels, for example by ELISA. […] TLR7 activity may then be assessed by the gene or protein expression of TLR7-responsive genes, such as Tnfα and Oas3.
For cGAS stimulations, cells were treated for indicated duration with ASOs, prior to transfection with ISD70 (human cells) or ISD45 (mouse cells) (the ASOs were not washed off prior to ISD transfection unless otherwise indicated). The cGAS ligands ISD45 (Stetson and Medzhitov, 2006) and ISD70 (also known as VACV-70 (Unterholzner et al., 2010)) (Table 1) were resuspended as follows: 5 1d of sense and 5 μl of antisense strands at 10 μg/μl were added to 90 μl PBS under sterile conditions, heated at 75° C. for 30 min, prior to letting cool down at room temperature and aliquoting (stock at 1 μg/1 l). The ISDs were transfected at a concentration of […] at a ratio of 1 μg:1 μl with Lipofectamine 2000 in Opti-MEM (Thermo Fisher Scientific). HEK-TLR3, HEK-TLR7 and […] were treated with indicated concentration of ASOs for 20-50 min, prior to stimulation with poly(I:C) (Invivogen), R848 (Invivogen), Motolimod (MedChemExpress) and the Class B CpG oligonucleotides ODN 2006 (synthesised by IDT and resuspended in RNase-free TE buffer [Table 1]), respectively. The TLR2/1 agonist PAM3CSK4 (Invivogen), the TLR4 agonist lipopolysaccharide (Invivogen), the Class B CpG oligonucleotides ODN 1826 (synthesised by IDT and resuspended in RNase-free TE buffer), the mouse Sting agonist DMXAA (Cayman) and the human STING agonist (compound #3 from (Raanjulu et al., 2018), referred to as GSK herein—kind gift from Cancer Therapeutics CRC, Australia) were used at indicated concentrations. Aspirin (Sigma—A2093) was resuspended in pure medium to 10 mM, filter sterilised and added to the cells at 2 mM final. All ASOs were synthesised by Integrated DNA Technologies (IDT), and resuspended in RNase-free TE buffer, pH 8.0 (Thermo Fisher Scientific). Cell viability was assessed by adding 1× fresh resazurin solution to the wells (10λ solution made up with 7 mg resazurin [Sigma—R7017] dissolved in 3.5 ml PBS, sterile filtered at […]) for 4 h, prior to reading at with a Fluostar OPTIMA (BMG LABTECH) plate-reader (fluorescence: Excitation 535 nm, Emission 590); wells with medium only and 1× resazurin were used as blanks.
Following transfection, the cells were collected from the 6-wells and aliquoted into 96-wells, just before ASO and overnight TLR stimulation (as above described). Similarly, the LL171 cells expressing and ISRE-Luc reporter were treated overnight.

Substance	TLR7 400 nM (HEK-TLR7)	TLR7 2 uM (HEK-TLR7)	TLR7 100 nM (averaged NF-κB-Luciferase level relative to R848 condition)	TLR7 500 nM (averaged NF-κB-Luciferase level relative to R848 condition)	IC50 (HEK-TLR7, oligo ~30-50 min before 1 μg/ml R848 overnight, read-out: IC50 (R848 sensing by TLR7)) [nM]
AAU (antisense mA*mA*mU)	1.340	0.888			
ACACTTCGTGGGGTCC (antisense; LNA-modified, pattern not given here) [HPRT LNA-665 V1]			0.548	0.086	
ACU (antisense mA*mC*mU)	1.322	0.916			
AGU (antisense mA*mG*mU)	1.025	0.952			
AUA (antisense mA*mU*mA)	1.171	0.905			
AUG (mA*mU*mG)	0.987	0.602			
AUU (mA*mU*mU)	1.221	0.700			
CAACACTTCGTGGGGT (antisense; LNA-modified, pattern not given here) [HPRT LNA-667 V1]			0.663	0.476	
CAU (mC*mA*mU)	1.288	0.995			
CCAAGATCAGCAGTCT (antisense; LNA-modified, pattern not given here) [CTNN2B-2341 LNA KL]			0.882	0.697	
CCATCCATGAGGTCCT (antisense; LNA-modified, pattern not given here) [CTNN2B-2545 LNA V1]			0.992	0.644	
CCU (mC*mC*mU)	1.210	0.880			
CGU (mC*mG*mU)	1.372	0.963			
CUA (mC*mU*mA)	1.388	0.953			
CUC (mC*mU*mC)	1.288	0.984			
CUG (mC*mU*mG)	1.405	0.804			
GATAGCACCTTCAGCA (antisense; LNA-modified, pattern not given here) [CTNN2B-1294 LNA KL]			0.434	0.049	

Substance	TLR7 400 nM (HEK-TLR7)	TLR7 2 uM (HEK-TLR7)	TLR7 100 nM (averaged NF-κB-Luciferase level relative to R848 condition)	TLR7 500 nM (averaged NF-κB-Luciferase level relative to R848 condition)	IC50 (HEK-TLR7, oligo ~30-50 min before 1 μg/ml R848 overnight, read-out: IC50 (R848 sensing by TLR7)) [nM]
GCAGGCTCAGTGATGT (antisense; LNA-modified, pattern not given here) [CTNN2B-1642 LNA V1]			0.676	0.189	
GCATCCACCACGTCGT (antisense; LNA-modified, pattern not given here) [EGFR-3267 LNA V1]			0.555	0.085	
GCCATCCACTTGATAG (antisense; LNA-modified, pattern not given here) [EGFR-2874 LNA V1]			0.671	0.123	
GCCATGCTGGCTCGGA (antisense; LNA-modified, pattern not given here) [CAMSAP1-2584 LNA V1]			0.638	0.175	
GCCATGTTTCTTCTTG (antisense; LNA-modified, pattern not given here) [MB21D1-1248 LNA KL]			0.816	0.021	
GCU (mG*mC*mU)	1.339	0.852			
GGCTGGAATCCGAGTT (antisense; LNA-modified, pattern not given here) [EGFR-4705 LNA KL]			0.417	0.041	
GGTTACGGCTCAGTAT (antisense; LNA-modified, pattern not given here) [CAMSAP1-4295 LNA KL]			0.438	0.140	
GGU (mG*mG*mU)	0.938	0.847			
GTATCGAAAGAGTCTG (antisense; LNA-modified, pattern not given here) [EGFR-3908 LNA KL]			0.562	0.113	
GTCCCCTGTTGACTGG (antisense; LNA-modified, pattern not given here) [HPRT LNA-489 KL]			0.557	0.123	
GTCTTGGCTTCGTGGA (antisense; LNA-modified, pattern not given here) [MB21D1-522 LNA V1]			0.652	0.056	
GTGTCTGGAAGCTTCC (antisense; LNA-modified, pattern not given here) [CTNN2B-809 LNA V1]			0.355	0.067	
GTTCAGTCCTGTCCAT (antisense; LNA-modified, pattern not given here) [HPRT LNA-292 V1]			0.456	0.114	
T*T*A* G*G*G* T*T*A* G*G*G* T*T*A* G*G*G* T*T*A* G*G*G [A151, reference compound]					132
TCCAACACTTCGTGGG (antisense; LNA-modified, pattern not given here) [HPRT LNA-669 V1]			0.318	0.249	
TCGTAGTTGCTTCCTA (antisense; LNA-modified, pattern not given here) [MB21D1-1181 LNA KL]			0.380	0.198	
